According to ChEMBL document CHEMBL1146472, “Cytotoxic cyclotides from Viola tricolor” (J Nat Prod, 2004):
Where a SMILES comes first, the peptide text is derived from it. Bridges are numbered along the chain shown (N, C = ends).

What was measured:
U-937/GTB = test: Cytotoxicity against human U937/GTB cells after 72 hrs by trypan blue exclusion method; assay type: functional, cell-based
RPMI-8226 = test: Cytotoxicity against human RPMI8226/S cells after 72 hrs by trypan blue exclusion method; assay type: functional, cell-based

Row | Structure (SMILES) | IC50 (U-937/GTB; Homo sapiens, U-937/GTB, 72 h) [nM] | IC50 (RPMI-8226; Homo sapiens, RPMI8226/S, 72 h) [nM] | IC50 (U-937/GTB; u-937/gtb) [nM] | IC50 (RPMI-8226; rpmi8226/s) [nM]
1 | COc1cccc2c1C(=O)c1c(O)c3c(c(O)c1C2=O)C[C@@](O)(C(=O)CO)C[C@@H]3O[C@H]1C[C@H](N)[C@H](O)[C@H](C)O1 [DOXORUBICIN] | 100 | 100 |  | 
2 | CC(C)C[C@@H]1NC(=O)CNC(=O)[C@H](CC(N)=O)NC(=O)[C@H](CCCNC(=N)N)NC(=O)[C@H]([C@@H](C)O)NC(=O)[C@@H]2CSSC[C@@H]3NC(=O)[C@H]([C@@H](C)O)NC(=O)CNC(=O)CNC(=O)[C@H](C(C)C)NC(=O)[C@@H](NC(=O)[C@@H](NC(=O)[C@H](CCC(=O)O)NC(=O)CN)[C@@H](C)O)CSSC[C@H](NC(=O)[C@H](CO)NC(=O)[C@H](CSSC[C@@H](C(=O)O)NC(=O)[C@H](C(C)C)NC(=O)[C@@H]4CCCN4C1=O)NC(=O)CNC(=O)[C@@H]1CCCN1C(=O)[C@H]([C@@H](C)O)NC(=O)[C@H](CC(N)=O)NC3=O)C(=O)N[C@@H](CO)C(=O)N[C@@H](Cc1c[nH]c3ccccc13)C(=O)N1CCC[C@H]1C(=O)N[C@@H](C(C)C)C(=O)N2 | 6000 | 3000 |  | 
3 | CC[C@H](C)[C@@H]1NC(=O)[C@@H]2CCCN2C(=O)[C@H](CC(C)C)NC(=O)CNC(=O)[C@H](CC(N)=O)NC(=O)[C@H](CCCNC(=N)N)NC(=O)[C@H]([C@@H](C)O)NC(=O)[C@@H]2CSSC[C@@H]3NC(=O)[C@H]([C@@H](C)O)NC(=O)CNC(=O)CNC(=O)[C@H](C(C)C)NC(=O)[C@@H](NC(=O)[C@@H](NC(=O)[C@H](CCC(=O)O)NC(=O)CN)[C@@H](C)O)CSSC[C@H](NC(=O)[C@H](CO)NC(=O)[C@H](CSSC[C@@H](C(=O)O)NC1=O)NC(=O)CNC(=O)[C@@H]1CCCN1C(=O)[C@H]([C@@H](C)O)NC(=O)[C@H](CC(N)=O)NC3=O)C(=O)N[C@@H](CO)C(=O)N[C@@H](Cc1c[nH]c3ccccc13)C(=O)N1CCC[C@H]1C(=O)N[C@@H](C(C)C)C(=O)N2 (stereo in doubt; form 1) | 4000 | 4000 |  | 
4 | CC[C@H](C)[C@@H]1NC(=O)[C@H](C)NC(=O)[C@H](CO)NC(=O)[C@H](CO)NC(=O)[C@H]([C@@H](C)CC)NC(=O)[C@@H]2CSSC[C@@H]3NC(=O)[C@H](C(C)C)NC(=O)[C@H](CCCCN)NC(=O)[C@H](CO)NC(=O)[C@H](CCCCN)NC(=O)[C@H](CSSC[C@H](NC(=O)[C@H](CO)NC(=O)[C@H](CCC(=O)O)NC(=O)CN)C(=O)N[C@@H](C(C)C)C(=O)N[C@@H](Cc4c[nH]c5ccccc45)C(=O)N[C@@H]([C@@H](C)CC)C(=O)N4CCC[C@H]4C(=O)N2)NC(=O)[C@H](CO)NC(=O)[C@H](CSSC[C@@H](C(=O)O)NC(=O)[C@@H]2CCCN2C(=O)[C@H]([C@@H](C)CC)NC(=O)CNC(=O)[C@H](CC(N)=O)NC(=O)[C@H](CCCNC(=N)N)NC(=O)[C@H](Cc2ccc(O)cc2)NC3=O)NC(=O)CNC1=O [CYCLOVIOLACIN O2] (H-GESCVWIPCISSAIGCSCKSKVCYRNGIPC-OH; disulfide 4-18, 9-23, 16-30) | 300 | 100 |  | 
5 | CC[C@H](C)[C@@H]1NC(=O)[C@@H]2CCCN2C(=O)[C@H](CC(C)C)NC(=O)CNC(=O)[C@H](CC(N)=O)NC(=O)[C@H](CCCNC(=N)N)NC(=O)[C@H]([C@@H](C)O)NC(=O)[C@@H]2CSSC[C@@H]3NC(=O)[C@H]([C@@H](C)O)NC(=O)CNC(=O)CNC(=O)[C@H](C(C)C)NC(=O)[C@@H](NC(=O)[C@@H](NC(=O)[C@H](CCC(=O)O)NC(=O)CN)[C@@H](C)O)CSSC[C@H](NC(=O)[C@H](CO)NC(=O)[C@H](CSSC[C@@H](C(=O)O)NC1=O)NC(=O)CNC(=O)[C@@H]1CCCN1C(=O)[C@H]([C@@H](C)O)NC(=O)[C@H](CC(N)=O)NC3=O)C(=O)N[C@@H](CO)C(=O)N[C@@H](Cc1c[nH]c3ccccc13)C(=O)N1CCC[C@H]1C(=O)N[C@@H](C(C)C)C(=O)N2 (stereo in doubt; form 2) |  |  | 7000 | 6000
6 | CC[C@H](C)[C@@H]1NC(=O)[C@H](C)NC(=O)[C@H](CO)NC(=O)[C@H]([C@@H](C)O)NC(=O)[C@H]([C@@H](C)CC)NC(=O)[C@@H]2CSSC[C@@H]3NC(=O)[C@H](C(C)C)NC(=O)[C@H](CCCCN)NC(=O)[C@H](CO)NC(=O)[C@H](CCCCN)NC(=O)[C@H](CSSC[C@H](NC(=O)[C@H](CO)NC(=O)[C@H](CCC(=O)O)NC(=O)CN)C(=O)N[C@@H](C(C)C)C(=O)N[C@@H](Cc4c[nH]c5ccccc45)C(=O)N[C@@H]([C@@H](C)CC)C(=O)N4CCC[C@H]4C(=O)N2)NC(=O)[C@H](CO)NC(=O)[C@H](CSSC[C@@H](C(=O)O)NC(=O)[C@@H]2CCCN2C(=O)[C@H]([C@@H](C)CC)NC(=O)CNC(=O)[C@H](CC(N)=O)NC(=O)[C@H](CCCNC(=N)N)NC(=O)[C@H](Cc2ccc(O)cc2)NC3=O)NC(=O)CNC1=O [VITRI A] (H-GESCVWIPCITSAIGCSCKSKVCYRNGIPC-OH; disulfide 4-18, 9-23, 16-30) | 600 | 1000 |  | 
